We go through five compounds from ChEMBL document CHEMBL1135956 (Bioorg Med Chem Lett, 2002).

Broadly, the IC50 is the point on the concentration scale where inhibition reaches its midpoint. High values mean a need for much substance, low ones inhibition by little substance.

The target in assay [1] is T1, Glucagon receptor (Homo sapiens, UniProt P47871). Nature of the assay: Binding affinity of second diastereomer (D2) against human glucagon receptor was determined.
Assay [2] deals with T1, Glucagon receptor. The experiment in a line: Binding affinity of second enantiomer (E2) against human glucagon receptor was determined.
The target of assay [3] is T1, Glucagon receptor. Nature of the assay: Binding affinity of first diastereomer (D1) against human glucagon receptor was determined.
Assay [4] addresses T1, Glucagon receptor. The experiment in a line: Binding affinity of first enantiomer (E1) against human glucagon receptor was determined.
Assay [5] in a line: Compound was evaluated for the functional activity by the inhibition of cAMP production. In general terms: Changes in cAMP serve as a functional read-out for many G protein-coupled receptors.

T1 sequence (P47871 whole entry): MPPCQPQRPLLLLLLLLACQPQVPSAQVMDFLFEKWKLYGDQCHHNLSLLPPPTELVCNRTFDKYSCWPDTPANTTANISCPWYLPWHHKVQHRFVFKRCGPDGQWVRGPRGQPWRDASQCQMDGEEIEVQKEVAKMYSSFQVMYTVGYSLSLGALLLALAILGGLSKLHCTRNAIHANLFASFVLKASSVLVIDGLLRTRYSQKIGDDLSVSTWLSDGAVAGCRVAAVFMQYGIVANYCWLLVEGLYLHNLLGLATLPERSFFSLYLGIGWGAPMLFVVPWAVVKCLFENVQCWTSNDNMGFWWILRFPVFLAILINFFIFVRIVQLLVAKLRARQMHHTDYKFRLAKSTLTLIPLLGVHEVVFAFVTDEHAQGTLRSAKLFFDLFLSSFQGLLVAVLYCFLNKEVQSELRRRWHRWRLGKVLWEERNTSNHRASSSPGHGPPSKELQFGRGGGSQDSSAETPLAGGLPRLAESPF

Regarding `CCc1c(C(C)C)nc(C(C)C)c(C(C)O)c1-c1ccc(F)cc1O` (centres undefined), the concentration for half-maximal inhibition (IC50) in assay [1] amounted to 2000 nM; in assay [2] it was 16 nM; in assay [3], 20 nM; in assay [4], 5000 nM.

Consider `CCCCc1c(C(C)C)nc(C(C)C)c(C(C)O)c1-c1ccc(F)cc1O` (centres undefined), for which the IC50 in assay [1] amounted to 1000 nM; in assay [3], 28 nM.

Turning to `CCCc1c(C(C)C)nc(C(C)C)c(C(C)O)c1-c1ccccc1O` (centres undefined), the IC50 is 1100 nM in assay [1], 25 nM in assay [2], 40 nM in assay [3] and 190 nM in assay [4].

Consider `CCCc1c(C(C)C)nc(C(C)C)c(C(C)O)c1-c1ccc(F)cc1O` (centres undefined), for which the concentration for half-maximal inhibition (IC50) came to 1000 nM in assay [1]; 10 nM in assay [2]; 18 nM in assay [3]; 8000 nM in assay [4]; 6.5 nM in assay [5].

`CCCCCc1c(C(C)C)nc(C(C)C)c(C(C)O)c1-c1ccc(F)cc1O` (centres undefined): the IC50 in assay [1] worked out at 2200 nM; in assay [2], 12 nM; in assay [3] it was 30 nM; in assay [4] it was 8000 nM.
